Key:
humans = experiment: Case reports: ophthalmic drops instilled into the conjunctival sac for night vision and night blindness; conditions: micro doses in the ophthalmic drops
[1] = cited from earlier work
mice = conditions: cited from earlier work

Row | Structure (SMILES) | hallucinogenic or other ill effect (humans) | red fluorescence (>640 nm) of eyes versus control mice ([1]; intravenously injected chlorin e6) | fluorescence emission of removed eyes (uptake by the retina) ([1]; mice, 2.00 mg per kilogram body weight intravenously, one hour after administration) | persistence of deposits in the photoreceptors ([1]; mice, intravenous chlorin e6) | neural impulse generation in the retina in response to amber light (mice; in the presence of chlorin e6) | neural impulse generation in the retina in response to red and blue light (mice; in the presence of chlorin e6) | electroretinographic amplitudes in response to red and blue light (mice; mice administered chlorin e6)
1 | CNC1(c2ccccc2Cl)CCCCC1=O (stereo not shown) [ketamine] | no hallucinogenic or other ill effect |  |  |  |  |  | 
2 | C=Cc1c(C)c2cc3nc(c(CC(=O)O)c4[nH]c(cc5nc(cc1[nH]2)C(C)=C5CC)c(C)c4C(=O)O)[C@@H](CCC(=O)O)[C@@H]3C (relative stereo) [chlorin e6] |  | three times more red fluorescence | strong emission band of red florescence centered at 675 nm | remained in the photoreceptors for three hours post administration | not amber light | almost two-fold increase | two-fold greater

— patent publication US20120157377A1, “METHODS TO ENHANCE NIGHT VISION AND TREATMENT OF NIGHT BLINDNESS” (priority 2012, published 2012)
